From ChEMBL document CHEMBL5154870, “Discovery of novel glutaminase 1 allosteric inhibitor with 4-piperidinamine linker and aromatic heterocycles” (Eur J Med Chem, 2022)
The source made the active and inactive calls. No cut-off for these calls is given here.

Assays:
[1] = Metabolic stability in human liver microsomes assessed as intrinsic clearance at 10 uM by LC-MS/MS analysis; format: ADME, Microsome; settings: read-out: CLH
[2] = system: MDA-MB-436; test: Antiproliferative activity against human MDA-MB-436 cells overexpressing GLS1 assessed as inhibition of cell proliferation measured after 72 hrs by MTT assay; format: functional, cell-based; settings: MDA-MB-436, 72 h
[3] = system: H22; test: Antiproliferative activity against mouse H22 cells assessed as inhibition of cell proliferation measured after 72 hrs by MTT assay; format: functional, cell-based; settings: H22, 72 h
[4] = system: HCT-116; test: Induction of apoptosis in human HCT-116 cells assessed as early apoptotic cells at 30 nM measured after 24 hrs by Annexin V-FITC/PI staining based flow cytometry method (reference value: 4.65 %); format: functional
[5] = system: HCT-116; test: Induction of apoptosis in human HCT-116 cells assessed as necrotic cells at 30 nM measured after 24 hrs by Annexin V-FITC/PI staining based flow cytometry method (reference value: 0.48 %); format: functional
[6] = system: HCT-116; test: Induction of apoptosis in human HCT-116 cells assessed as necrotic cells at 200 nM measured after 24 hrs by Annexin V-FITC/PI staining based flow cytometry method (reference value: 0.48 %); format: functional
[7] = Half life in Sprague-Dawley rat at 10 mg/kg, ip measured for 72 hrs by LC-MS/MS analysis; format: ADME, organism-based; settings: in vivo
[8] = Apparent clearance in Sprague-Dawley rat at 10 mg/kg, ip measured for 72 hrs by LC-MS/MS analysis; format: ADME, organism-based; settings: in vivo
[9] = Bioavailability in Sprague-Dawley rat at 10 mg/kg, ip measured for 72 hrs by LC-MS/MS analysis; format: ADME, organism-based; settings: in vivo
[10] = system: HCT-116; test: Antitumor activity against human HCT-116 cells xenografted in BALB/c SPF mouse assessed as tumor growth inhibition at 50 mg/kg, ip administered BID for 21 days; format: functional; settings: HCT-116, 504 h, time 21 day, read-out: TGI
[11] = Toxicity in nude mouse xenografted with human HCT-116 cells assessed as heart damage by measuring edema and atrophy at 50 to 100 mg/kg, ip measured after 21 days by H and E staining based analysis; format: organism-based; settings: in vivo, 504 h, dose 50-100 mg/kg, time 21 day
[12] = Toxicity in nude mouse xenografted with human HCT-116 cells assessed as spleen damage by measuring edema and atrophy at 50 to 100 mg/kg, ip measured after 21 days by H and E staining based analysis; format: organism-based; settings: in vivo, 504 h, dose 50-100 mg/kg, time 21 day
[13] = molecular target: T1, Glutaminase kidney isoform, mitochondrial (Homo sapiens) (UniProt O94925); settings: HCT-116, filed as negative allosteric modulator, dose 100-300 nM, time 12.0 hrs
T1 sequence (whole entry): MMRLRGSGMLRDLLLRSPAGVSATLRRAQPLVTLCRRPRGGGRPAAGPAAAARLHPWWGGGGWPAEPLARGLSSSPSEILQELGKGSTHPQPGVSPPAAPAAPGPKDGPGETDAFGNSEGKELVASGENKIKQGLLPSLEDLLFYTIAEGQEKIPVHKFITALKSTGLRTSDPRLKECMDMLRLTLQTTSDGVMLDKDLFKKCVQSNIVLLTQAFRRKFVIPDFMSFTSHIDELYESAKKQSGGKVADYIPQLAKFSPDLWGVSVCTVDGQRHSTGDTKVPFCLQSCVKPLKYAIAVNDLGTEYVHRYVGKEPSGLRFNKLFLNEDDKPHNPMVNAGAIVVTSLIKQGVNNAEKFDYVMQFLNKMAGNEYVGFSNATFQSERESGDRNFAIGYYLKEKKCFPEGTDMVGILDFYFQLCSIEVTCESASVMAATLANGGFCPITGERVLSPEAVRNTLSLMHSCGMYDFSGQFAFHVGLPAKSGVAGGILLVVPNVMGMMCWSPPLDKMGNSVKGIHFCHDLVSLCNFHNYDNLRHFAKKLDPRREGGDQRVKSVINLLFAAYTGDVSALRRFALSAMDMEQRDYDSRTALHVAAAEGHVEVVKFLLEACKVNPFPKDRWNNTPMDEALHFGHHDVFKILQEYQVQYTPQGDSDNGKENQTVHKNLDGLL

[14] = molecular target: T1, Glutaminase kidney isoform, mitochondrial (Homo sapiens); settings: HCT-116, filed as negative allosteric modulator, dose 100-300 nM, time 12.0 hrs; remark: listed apart in the source
[15] = molecular target: T1, Glutaminase kidney isoform, mitochondrial (Homo sapiens); settings: HCT-116, filed as negative allosteric modulator, dose 100-300 nM, time 12.0 hrs; remark: listed apart in the source
[16] = molecular target: T1, Glutaminase kidney isoform, mitochondrial (Homo sapiens); settings: HCT-116, filed as negative allosteric modulator, dose 100-300 nM, time 12.0 hrs; remark: listed apart in the source
[17] = molecular target: T1, Glutaminase kidney isoform, mitochondrial (Homo sapiens); settings: HCT-116, filed as negative allosteric modulator, dose 100-300 nM, time 12.0 hrs; remark: listed apart in the source

## O=C(Cc1ccccc1)Nc1nnc(NC2CCN(c3nnc(NC(=O)c4nccn4Cc4ccc(C(F)(F)F)cc4)s3)CC2)s1
[1]
  microsomal CLint at 10 µM: 8.95 µL/min/mg
[2]
  IC50: 0.37 µM
[3]
  IC50: 10.8 µM
[4]
  Activity: 13.6%
[5]
  Activity: 0.048%
[6]
  Activity: 0.02%
[7]
  half-life: 8.92 h
[8]
  CL/F: 48.8 mL/min/kg
[9]
  bioavailability: 20.9%
[10]
  inhibition in vivo at 50 mg/kg: 35.5%
[11]
  Activity: Non-Toxic
[12]
  Activity: Non-Toxic
[13]
  inhibition: Active
[14]
  inhibition: Active
[15]
  inhibition: Active
[16]
  inhibition: Active
[17]
  inhibition: Active
